Data published in ChEMBL document CHEMBL6177953, “Discovery of a novel quinoxaline derivative modulator via a dual P53/TLR2 targeting strategy for the alleviation of radiation damage” (Eur J Med Chem, 2025).
Activity calls are given as the source filed them. No cut-off for these calls is given here.

Columns and labels:
[1] = tested on: Mus musculus; assay: Radioprotective activity in male C57BL/6J mouse assessed as survival rate at 250 mg/kg, ip pre-treated with compound for 24.25 hrs followed by irradiation at 8.5 Gy and measured for 30 days post irradiation relative to control; type: functional; settings: time 744.25 hrs
[2] = tested on: AHH-1; assay: Antiradiation activity in human AHH-1 cells assessed as increase in cell viability at 2.5 to 10 micromol/L pre-treated with compound for 24 hrs followed by irradiation at 4 Gy measured after 24 hrs by CCK-8 assay; type: functional, cell-based; settings: dose 2.5-10 µmol/L, time 48.0 hrs
[3] = tested on: AHH-1; assay: Antiradiation activity in human AHH-1 cells assessed as increase in cell viability at 2.5 to 10 micromol/L pre-treated with compound for 24 hrs followed by irradiation at 8 Gy measured after 24 hrs by CCK-8 assay; type: functional, cell-based; settings: dose 2.5-10 µmol/L, time 48.0 hrs
[4] = Cytotoxicity against HUVEC incubated for 24 to 96 hrs by CCK-8 assay; type: toxicity, cell-based; settings: human, HUVEC cells
[5] = tested on: HUVEC; assay: Antiradiation activity in human HUVEC assessed as cell viability at 5 to 20 micromol/L pre-treated with compound for 24 hrs followed by irradiation at 6 Gy measured after 96 hrs by CCK-8 assay; type: functional, cell-based; settings: dose 5-20 µmol/L, time 120.0 hrs
[6] = tested on: HUVEC; assay: Antiradiation activity in human HUVEC assessed as cell viability at 5 to 20 micromol/L pre-treated with compound for 24 hrs followed by irradiation at 8 Gy measured after 96 hrs by CCK-8 assay; type: functional, cell-based; settings: dose 5-20 µmol/L, time 120.0 hrs
[7] = tested on: AHH-1; assay: Cytotoxicity against human AHH-1 cells incubated for 24 to 96 hrs by CCK-8 assay; type: functional, cell-based
[8] = tested on: AHH-1; assay: Antiradiation activity in human AHH-1 cells assessed as increase in cell viability at 2.5 to 10 micromol/L pre-treated with compound for 24 hrs followed by irradiation at 6 Gy measured after 24 hrs by CCK-8 assay; type: functional, cell-based; settings: dose 2.5-10 µmol/L, time 48.0 hrs
[9] = tested on: Mus musculus; assay: Radioprotective activity in male C57BL/6J mouse assessed as increase in body weight at 100 to 300 mg/kg, ip pre-treated with compound for 24.25 hrs followed by irradiation at 8.5 Gy and measured on day 18 post irradiation; type: functional, organism-based; settings: dose 100-300 mg/kg, time 456.25 hrs
[10] = tested on: Mus musculus; assay: Radioprotective activity in male C57BL/6J mouse assessed as increase in cell growth at 250 to 300 mg/kg, ip pre-treated with compound for 24.25 hrs followed by irradiation at 6.5 Gy and measured on 30 day post irradiation; type: functional, organism-based; settings: dose 250-300 mg/kg, time 744.25 hrs
[11] = tested on: AHH-1; assay: Induction of apoptosis in human AHH-1 cells assessed as necrotic cells pre-treated with compound for 24 hrs followed by irradiation at 6 Gy and measured after 24 hrs by Annexin V-FITC/PI staining based Flow cytometry analysis (reference value: 5.37%); type: functional; settings: time 48 hrs
[12] = tested on: Mus musculus; assay: Radioprotective activity in male C57BL/6J mouse assessed as survival rate at 300 mg/kg, ip pre-treated with compound for 24.25 hrs followed by irradiation at 8.5 Gy and measured for 30 days post irradiation relative to control; type: functional; settings: time 744.25 hrs
[13] = tested on: AHH-1; assay: Induction of apoptosis in human AHH-1 cells assessed as late apoptotic cells pre-treated with compound for 24 hrs followed by irradiation at 6 Gy and measured after 24 hrs by Annexin V-FITC/PI staining based Flow cytometry analysis (reference value: 2.65%); type: functional; settings: time 48 hrs
[14] = tested on: AHH-1; assay: Induction of apoptosis in human AHH-1 cells assessed as viable cells pre-treated with compound for 24 hrs followed by irradiation at 6 Gy and measured after 24 hrs by Annexin V-FITC/PI staining based Flow cytometry analysis (reference value: 83.6%); type: functional; settings: time 48 hrs
[15] = tested on: AHH-1; assay: Induction of apoptosis in human AHH-1 cells assessed as early apoptotic cells pre-treated with compound for 24 hrs followed by irradiation at 6 Gy and measured after 24 hrs by Annexin V-FITC/PI staining based Flow cytometry analysis (reference value: 8.15%); type: functional; settings: time 48 hrs
[16] = tested on: Mus musculus; assay: Radioprotective activity in male C57BL/6J mouse assessed as survival rate at 100 mg/kg, ip pre-treated with compound for 24.25 hrs followed by irradiation at 8.5 Gy and measured for 30 days post irradiation relative to control; type: functional; settings: time 744.25 hrs

Row | Compound | Activity [2] | Activity [3] | IC50 [7] | Activity [8] | other results
1 | Cc1ccc(CS(=O)(=O)c2cnc3ccccc3n2)cc1 | Active | Active | 36.5 µM | Active | Activity [1]: 80%; IC50 [4]: 56.1 µM; Activity [5]: Active; Activity [6]: Active; Activity [9]: Active
2 | Brc1ccc(CSc2cnc3ccccc3n2)cc1 | Active | Active | 8.9 µM | Active | 
3 | O=S(=O)(Cc1ccc(Cl)cc1)c1cnc2ccccc2n1 |  |  | 5.56 µM |  | 
4 | N#Cc1ccc(CS(=O)(=O)c2cnc3cc(Cl)ccc3n2)cc1 | Active | Active | 4.8 µM | Active | 
5 | Fc1ccc(CSc2cnc3cc(Cl)ccc3n2)cc1 |  |  | > 60 µM |  | 
6 | Clc1ccc(CSc2cnc3ccccc3n2)cc1 | Active | Active | 16.6 µM | Active | 
7 | [O-][S+](Cc1ccc(F)cc1)c1cnc2cc(Br)ccc2n1 (stereo not drawn) |  |  | > 60 µM |  | 
8 | Cc1ccc(CS(=O)(=O)c2cnc3cc(Cl)ccc3n2)cc1 |  |  | 27.7 µM |  | 
9 | O=S(=O)(Cc1ccc(F)cc1)c1cnc2cc(Cl)ccc2n1 | Active | Active | 6.32 µM | Active | 
10 | O=S(=O)(Cc1ccc(F)cc1)c1cnc2cc(Br)ccc2n1 |  |  | > 60 µM |  | 
11 | [O-][S+](Cc1ccc(Br)cc1)c1cnc2ccccc2n1 (stereo not drawn) |  |  | > 60 µM |  | 
12 | O=S(=O)(Cc1ccc(Cl)cc1)c1cnc2cc(Cl)ccc2n1 |  |  | 18.6 µM |  | 
13 | N#Cc1ccc(CSc2cnc3ccccc3n2)cc1 | Active | Active | 17.3 µM | Active | 
14 | O=C([O-])c1ccc(/C=C/S(=O)(=O)Cc2ccc(Cl)cc2)cc1.[Na+] [RECILISIB SODIUM] | Active | Active | 39.6 µM | Active | Activity [10]: Active; Activity [11]: 5.5%; IC50 [4]: > 60 µM; Activity [12]: 20%; Activity [13]: 8.65%; Activity [14]: 66.6%; Activity [9]: Active; Activity [15]: 19.2%
15 | O=S(=O)(Cc1ccc(Cl)cc1)c1cnc2cc(Br)ccc2n1 |  |  | > 60 µM |  | 
16 | [O-][S+](Cc1ccc(Cl)cc1)c1cnc2cc(Cl)ccc2n1 (stereo not drawn) |  |  | 11.2 µM |  | 
17 | N#Cc1ccc(CSc2cnc3cc(Cl)ccc3n2)cc1 | Active | Active | > 60 µM | Active | 
18 | Fc1ccc(CSc2cnc3cc(Br)ccc3n2)cc1 | Active | Active | 22.2 µM | Active | 
19 | O=C(O)c1ccc(CSc2cnc3cc(Cl)ccc3n2)cc1 | Active | Active | > 60 µM | Active | 
20 | O=C(O)c1ccc(CS(=O)(=O)c2cnc3cc(Cl)ccc3n2)cc1 | Active | Active | 22.4 µM | Active | Activity [16]: 50%; IC50 [4]: > 60 µM; Activity [9]: Active
21 | Cc1ccc(CS(=O)(=O)c2cnc3cc(Br)ccc3n2)cc1 |  |  | > 60 µM |  | 
22 | Fc1ccc(CSc2cnc3ccccc3n2)cc1 | Active | Active | 58.8 µM | Active | 
23 | O=C(O)c1ccc(CS(=O)(=O)c2cnc3ccccc3n2)cc1 | Active | Active | > 60 µM | Active | 
24 | COc1ccc(CSc2cnc3ccccc3n2)cc1 | Active | Active | > 60 µM | Active | 

Row | Compound | Activity [2] | Activity [3] | IC50 [7] | Activity [8] | other results
25 | Clc1ccc(CSc2cnc3cc(Cl)ccc3n2)cc1 | Active | Active | 53.8 µM | Active | 
26 | O=S(=O)(Cc1ccc(Br)cc1)c1cnc2ccccc2n1 | Active | Active | > 60 µM | Active | 
27 | O=S(=O)(Cc1ccc(F)cc1)c1cnc2ccccc2n1 |  |  | > 60 µM |  | 
28 | Cc1ccc(CSc2cnc3cc(Br)ccc3n2)cc1 |  |  | 11.3 µM |  | 
29 | O=S(=O)(Cc1ccccc1)c1cnc2cc(Cl)ccc2n1 |  |  | 6.27 µM |  | 
30 | O=C(O)c1ccc(CSc2cnc3ccccc3n2)cc1 | Active | Active | > 60 µM | Active | 
31 | COc1ccc(CSc2cnc3cc(Cl)ccc3n2)cc1 | Active | Active | > 60 µM | Active | 
32 | Cc1ccc(CSc2cnc3ccccc3n2)cc1 | Active | Active | > 60 µM | Active | 
33 | N#Cc1ccc(C[S+]([O-])c2cnc3cc(Cl)ccc3n2)cc1 (stereo not drawn) |  |  | 4.59 µM |  | 
34 | Cc1ccc(CSc2cnc3cc(Cl)ccc3n2)cc1 | Active | Active | > 60 µM | Active | 
35 | O=S(=O)(Cc1ccc(Br)cc1)c1cnc2cc(Cl)ccc2n1 | Active | Active | 15.5 µM | Active | 
36 | Brc1ccc(CSc2cnc3cc(Br)ccc3n2)cc1 |  |  | 4.58 µM |  | 
37 | Cc1ccc(C[S+]([O-])c2cnc3cc(Cl)ccc3n2)cc1 (stereo not drawn) |  |  | 13 µM |  | 
38 | O=C(O)c1ccc(CSc2cnc3cc(Br)ccc3n2)cc1 | Active | Active | > 60 µM | Active | 
39 | [O-][S+](Cc1ccc(Br)cc1)c1cnc2cc(Cl)ccc2n1 (stereo not drawn) |  |  | 12.9 µM |  | 
40 | Clc1ccc(CSc2cnc3cc(Br)ccc3n2)cc1 |  |  | 3.03 µM |  | 
41 | Clc1ccc2nc(SCc3ccccc3)cnc2c1 | Active | Active | > 60 µM | Active | 
42 | [O-][S+](Cc1ccc(F)cc1)c1cnc2cc(Cl)ccc2n1 (stereo not drawn) |  |  | 5.23 µM |  | 
43 | Clc1ccc2nc(SCc3ccc(Br)cc3)cnc2c1 |  |  | > 60 µM |  | 
44 | [O-][S+](Cc1ccc(F)cc1)c1cnc2ccccc2n1 (stereo not drawn) | Active | Active | > 60 µM | Active | 
45 | O=S(=O)(Cc1ccc(Br)cc1)c1cnc2cc(Br)ccc2n1 |  |  | 21.7 µM |  | 
46 | [O-][S+](Cc1ccccc1)c1cnc2cc(Cl)ccc2n1 (stereo not drawn) |  |  | 6.28 µM |  | 
47 | COc1ccc(CSc2cnc3cc(Br)ccc3n2)cc1 | Active | Active | 39.5 µM | Active | 
